Test results reported in patent publication US20080260705A1, “Preventing Arrhythmias Associated with Cell Transplantation” (The Johns Hopkins University, priority 2004, published 2008).

Key:
SkM:NRVM co-cultures = test: Pharmacological intervention for induced reentrant arrhythmias, optical mapping of mixed co-cultures; type: cell-based; details: n=12
Experimental: Human skeletal myoblasts were obtained from Cambrex (Walkersville, Md.) and grown in myoblast basal growth medium (SkBM, Clonetics) containing 10% fetal bovine serum, recombinant human epidermal factor (10 ng/ml), dexamethasone (3 μg/ml), L-glutamine, Gentamicin and Amphotericin-B, at 37° C. and 5% CO2. (Vials obtained from Cambrex contained 70-80% myoblasts, and the remainder were fibroblasts). The cells were seeded at 3,500 cells/cm^2 and maintained at cell densities of 60-70% to prevent myotube formation during the culture process. Cells were transduced with lentivirus on their second passage and frozen at −80° C. or amplified up to 10 population doublings. For co-cultures, myoblasts were dissociated using trypsin, counted and then used.
Cells were re-suspended in M199 culture medium (Life Technologies, Rockville, Md.), supplemented with 10% heat-inactivated fetal bovine serum (Life Technologies), differentially pre-plated in two 45 minute steps, and then counted using a hemocytometer. For control experiments, 10^6 cells were plated on 22 mm plastic coverslips coated with fibronectin (25 μg/ml). On day 2 after cell plating, serum was reduced to 2%.
Myoblasts and NRVMs were co-cultured (isotropic) on 22 mm plastic cover slips (coated with fibronectin, 25 μg/ml) for 9-11 days and then used for optical mapping. In an initial set of experiments, 0.5×10^6 NRVMs were plated over half of the cover slip, with the other half covered by a PDMS stamp coated with fibronectin (50 μg/ml). The PDMS stamp was removed 24 hours later and 0.5×10^6 myoblasts transduced with Lv-GFP were then plated. […] In a second set of experiments, the myoblasts (transduced with LvGFP) and NRVMs were plated at the same time in varying ratios: 1:1, 1:4 and 1:9 to study the electrophysiologic consequences of mixing the two cell types.
(§1) Coverslips were visually inspected under a microscope. Monolayers with obvious gaps in confluency and non-beating cultures were rejected. The coverslips were placed in a custom-designed chamber, stained with 5 μM di-4-ANEPPS (Molecular Probes; Eugene, Oreg.) for 5 min and continuously superfused with warm (36.5° C.) oxygenated Tyrode solution consisting of (in mM) 135 NaCl, 5.4 KCl, 1.8 CaCl2, 1 MgCl2, 0.33 NaH2PO4, 5 HEPES, and 5 Glucose. A unipolar point or area electrode (4 bipolar line electrodes) was used to stimulate the cells in culture. Action potentials were recorded from 253 sites using a modified custom-built contact fluorescence imaging system.^15 The recording chamber was placed directly above a fiber bundle with fibers arranged in a 17 mm-diameter hexagonal array. A light emitting diode (LED) light source with an interference filter (530+/−25 mm) delivered excitation light to the chamber. […]

L-type calcium channel = test: Nitrendipine dose response curve: APD and conduction velocity by optical mapping; type: cell-based; details: nitrendipine 5 μM
Experimental: as §1
Baseline drift was reduced by subtraction of a fitted polynomial curve from the optical signal. […] To compare velocities among different episodes in the same monolayer, conduction velocity was calculated along the same path and averaged over different stimulus responses. […] Data are expressed as Mean +/−SEM unless stated otherwise. Differences between means were assessed using the Student's t test or Fischer's exact test.

CCN(CC)CC(=O)Nc1c(C)cccc1C [lidocaine]
termination of reentry (SkM:NRVM co-cultures; lidocaine 200 μM superfused, co-cultures): did not terminate it in the majority of co-cultures
slowed the reentry rate (SkM:NRVM co-cultures; lidocaine 200 μM superfused, induced reentry in co-cultures): 70-80%

CCOC(=O)C1=C(C)NC(C)=C(C(=O)OC)C1c1cccc([N+](=O)[O-])c1 (centres unmarked) [nitrendipine]
shortened APD (L-type calcium channel): 50%
slowed the reentrant rhythms (SkM:NRVM co-cultures; nitrendipine 5 μM superfused, before termination): 10-20%
time to abrupt termination of reentry (SkM:NRVM co-cultures; nitrendipine 5 μM, in all co-cultures): ≤ 5 min
